Test: Photoinitiator stability: concentrations in recovered resin composition after printing cycles
Type: physicochemical
Settings: for change of concentration in recovered resin composition: with increasing printing cycles

concentration in recovered resin composition (1 printing cycle)	concentration in recovered resin composition (2 printing cycles)	concentration in recovered resin composition (4 printing cycles)	concentration in recovered resin composition (6 printing cycles)	change of concentration in recovered resin composition	Molecule
0.98 wt %	1 wt %	0.98 wt %	0.99 wt %	remained constant	Cc1cc(C)c(C(=O)P(=O)(C(=O)c2c(C)cc(C)cc2C)c2ccccc2)c(C)c1 [BAPO, phenylbis(2,4,6-trimethylbenzoyl) phosphine oxide]
0.0077 wt %	0.0063 wt %	0.0043 wt %	0.0026 wt %	decreased	Vitamin E
